Assay [1] deals with T1, Probable nicotinate-nucleotide adenylyltransferase (Staphylococcus aureus (strain N315), UniProt P65502). In kind it is functional, Staphylococcus aureus subsp. aureus N315. Conditions: read-out: IC50_Mean.
Assay [2] has as its target T2, Replicative DNA helicase DnaB (Mycobacterium tuberculosis, UniProt P9WMR3).
T2 sequence (P9WMR3 whole entry): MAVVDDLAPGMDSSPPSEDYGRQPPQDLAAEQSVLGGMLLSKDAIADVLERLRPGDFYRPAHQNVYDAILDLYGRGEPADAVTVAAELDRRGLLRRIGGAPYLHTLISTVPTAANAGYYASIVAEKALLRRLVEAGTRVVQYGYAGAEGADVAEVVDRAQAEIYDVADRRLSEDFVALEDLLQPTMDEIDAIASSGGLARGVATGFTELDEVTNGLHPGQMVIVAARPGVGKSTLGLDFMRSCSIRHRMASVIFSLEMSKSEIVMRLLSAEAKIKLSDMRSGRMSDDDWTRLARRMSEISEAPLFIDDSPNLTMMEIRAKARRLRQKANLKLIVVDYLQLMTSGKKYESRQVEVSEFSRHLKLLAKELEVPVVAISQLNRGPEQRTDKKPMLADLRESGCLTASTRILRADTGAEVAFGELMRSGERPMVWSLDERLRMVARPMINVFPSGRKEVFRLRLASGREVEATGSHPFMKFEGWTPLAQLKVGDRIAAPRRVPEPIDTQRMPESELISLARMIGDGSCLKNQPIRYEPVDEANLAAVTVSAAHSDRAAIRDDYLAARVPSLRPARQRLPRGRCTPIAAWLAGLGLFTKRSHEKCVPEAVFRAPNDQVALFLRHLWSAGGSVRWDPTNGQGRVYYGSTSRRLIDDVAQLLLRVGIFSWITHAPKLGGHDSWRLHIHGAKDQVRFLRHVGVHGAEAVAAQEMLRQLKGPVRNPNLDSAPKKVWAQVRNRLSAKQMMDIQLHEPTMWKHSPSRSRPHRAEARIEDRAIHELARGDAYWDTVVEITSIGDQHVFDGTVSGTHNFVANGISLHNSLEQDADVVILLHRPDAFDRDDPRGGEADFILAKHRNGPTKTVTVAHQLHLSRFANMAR
The assay is described as follows: DnaB intein splicing inhibitors, dose response, biochemical, cell-free fluorescence (AID 449749). Type of assay: functional.

In assay [3] the target is T1, Probable nicotinate-nucleotide adenylyltransferase. Type of assay: functional, Staphylococcus aureus subsp. aureus N315.
The target in assay [4] is T3, Protein RecA (Mycobacterium tuberculosis, UniProt P9WHJ3).
T3 sequence (P9WHJ3 whole entry): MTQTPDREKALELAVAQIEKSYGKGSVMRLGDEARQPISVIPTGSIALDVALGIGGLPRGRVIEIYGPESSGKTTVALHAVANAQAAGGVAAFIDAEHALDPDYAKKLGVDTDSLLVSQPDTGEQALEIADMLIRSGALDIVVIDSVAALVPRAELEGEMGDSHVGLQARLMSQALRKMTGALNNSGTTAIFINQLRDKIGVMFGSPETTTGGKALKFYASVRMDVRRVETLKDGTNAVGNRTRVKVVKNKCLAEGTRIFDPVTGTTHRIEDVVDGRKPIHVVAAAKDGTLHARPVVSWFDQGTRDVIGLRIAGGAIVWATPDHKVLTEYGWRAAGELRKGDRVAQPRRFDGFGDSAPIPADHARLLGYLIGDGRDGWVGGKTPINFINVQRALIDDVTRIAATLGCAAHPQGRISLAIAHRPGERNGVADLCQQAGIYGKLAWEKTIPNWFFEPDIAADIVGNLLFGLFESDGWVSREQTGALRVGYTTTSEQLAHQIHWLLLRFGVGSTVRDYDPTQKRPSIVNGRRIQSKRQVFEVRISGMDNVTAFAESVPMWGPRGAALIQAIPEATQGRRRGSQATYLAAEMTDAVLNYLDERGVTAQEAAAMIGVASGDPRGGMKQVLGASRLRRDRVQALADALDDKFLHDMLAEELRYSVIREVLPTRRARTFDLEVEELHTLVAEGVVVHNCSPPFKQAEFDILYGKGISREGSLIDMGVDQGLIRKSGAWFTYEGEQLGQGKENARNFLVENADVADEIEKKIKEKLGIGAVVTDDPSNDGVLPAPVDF
The assay is described as follows: Fluorescence Cell-Free Homogeneous Dose Retest to Identify Inhibitors of RecA-Intein Splicing Activity. [Related pubchem assays (depositor defined):AID2097, AID2223, AID489010, AID492950]. In kind it is functional.

Assay [5] addresses T4, Sentrin-specific protease 8 (Homo sapiens, UniProt Q96LD8).
T4 sequence (Q96LD8 whole entry): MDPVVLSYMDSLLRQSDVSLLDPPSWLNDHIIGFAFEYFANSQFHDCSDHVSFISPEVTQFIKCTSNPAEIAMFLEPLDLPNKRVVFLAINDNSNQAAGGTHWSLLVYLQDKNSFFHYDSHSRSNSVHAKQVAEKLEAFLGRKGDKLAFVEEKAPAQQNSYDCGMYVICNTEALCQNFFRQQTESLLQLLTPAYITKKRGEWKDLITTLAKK
In kind it is functional.

Assay [6] has as its target T4, Sentrin-specific protease 8. Type of assay: functional. The source holds these as a separate data set.
A short description of assay [7]: HIV-1 AD8 envelope cell-cell fusion blockers – cherry-pick, dose response (AID 652062).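 Also: luciferase signal from cell-cell fusion driven by HIV-1 clade B AD8 Env; potency is for inhibitors of fusion seen as a drop in luminescence.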 In kind it is functional, cell-based.
A short description of assay [8]: off-target signal loss in HeLa-CEM21 co-culture – HeLa F-luc CTL cells, cherry-picked, counter-screen for HIV-1 Env fusion inhibitor project, dose response (AID 652040).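 Also: potency for signal decrease marking cytotoxic or nonspecific inhibition.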 Type of assay: functional, cell-based.
The nature of assay [9]: blockers of HIV-1 ZM109 envelope-driven cell-cell fusion – HeLa effector, CEM target cells, luciferase, cherry-pick, dose response (AID 652058).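 Also: luciferase signal from HIV-1 Env mediated cell-cell fusion of effector and target cells.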 Type of assay: functional, cell-based.
Assay [10] deals with T5, Histone-lysine N-methyltransferase NSD2 (Homo sapiens, UniProt O96028).
T5 sequence (O96028 whole entry): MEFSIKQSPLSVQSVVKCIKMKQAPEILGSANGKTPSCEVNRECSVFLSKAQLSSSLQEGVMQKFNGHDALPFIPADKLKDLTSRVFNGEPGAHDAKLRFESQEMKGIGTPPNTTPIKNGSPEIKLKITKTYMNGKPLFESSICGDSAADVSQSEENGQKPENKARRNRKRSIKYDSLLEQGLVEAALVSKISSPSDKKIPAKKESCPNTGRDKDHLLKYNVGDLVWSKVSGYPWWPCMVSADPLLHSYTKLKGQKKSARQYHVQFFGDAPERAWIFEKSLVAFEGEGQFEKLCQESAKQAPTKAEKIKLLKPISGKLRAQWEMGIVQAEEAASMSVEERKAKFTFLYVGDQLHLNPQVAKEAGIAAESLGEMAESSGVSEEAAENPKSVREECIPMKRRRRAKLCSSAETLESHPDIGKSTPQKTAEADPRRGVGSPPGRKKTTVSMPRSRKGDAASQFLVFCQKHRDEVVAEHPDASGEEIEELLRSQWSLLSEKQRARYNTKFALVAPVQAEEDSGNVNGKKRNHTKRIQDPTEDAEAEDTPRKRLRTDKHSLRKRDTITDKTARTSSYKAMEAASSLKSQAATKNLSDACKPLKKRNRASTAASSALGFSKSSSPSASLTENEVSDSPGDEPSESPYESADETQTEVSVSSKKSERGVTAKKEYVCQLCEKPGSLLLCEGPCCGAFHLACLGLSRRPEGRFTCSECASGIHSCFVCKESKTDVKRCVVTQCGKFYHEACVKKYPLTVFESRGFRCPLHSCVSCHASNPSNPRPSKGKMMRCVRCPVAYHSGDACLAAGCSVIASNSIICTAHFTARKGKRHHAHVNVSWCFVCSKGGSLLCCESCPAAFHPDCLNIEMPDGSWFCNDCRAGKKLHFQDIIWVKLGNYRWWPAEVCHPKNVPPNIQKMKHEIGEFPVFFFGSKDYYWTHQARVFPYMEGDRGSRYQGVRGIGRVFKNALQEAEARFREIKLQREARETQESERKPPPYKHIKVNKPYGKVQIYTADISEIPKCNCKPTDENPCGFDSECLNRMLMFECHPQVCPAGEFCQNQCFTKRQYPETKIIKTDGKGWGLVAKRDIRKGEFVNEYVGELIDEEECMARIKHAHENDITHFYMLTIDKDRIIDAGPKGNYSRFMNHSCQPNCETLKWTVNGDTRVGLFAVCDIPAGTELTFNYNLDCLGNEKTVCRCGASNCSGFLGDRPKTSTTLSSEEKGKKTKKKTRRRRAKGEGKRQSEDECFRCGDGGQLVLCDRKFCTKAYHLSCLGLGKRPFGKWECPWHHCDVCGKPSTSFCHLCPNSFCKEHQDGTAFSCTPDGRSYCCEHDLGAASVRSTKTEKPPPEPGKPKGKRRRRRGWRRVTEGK
Type of assay: biochemical.

In assay [11] the target is T6, RNA-binding protein pos-1 (Caenorhabditis elegans, UniProt G5EF15).
T6 sequence (G5EF15 whole entry): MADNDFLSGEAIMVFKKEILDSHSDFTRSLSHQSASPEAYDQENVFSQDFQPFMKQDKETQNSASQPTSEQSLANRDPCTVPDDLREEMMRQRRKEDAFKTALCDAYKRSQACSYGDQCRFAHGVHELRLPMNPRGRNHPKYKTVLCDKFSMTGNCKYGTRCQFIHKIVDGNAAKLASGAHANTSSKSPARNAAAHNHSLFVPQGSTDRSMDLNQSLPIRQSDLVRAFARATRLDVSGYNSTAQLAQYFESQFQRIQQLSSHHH
Kind of assay: disruptors of C. elegans POS-1 RNA interaction – biochemical, fluorescence polarization, dose response (AID 1964).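 Also: purified POS-1 fused to maltose binding protein made in E. coli; potency of compounds blocking POS-1 binding to fluorescent RNA.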

The target of assay [12] is T7, Zinc finger protein mex-5 (Caenorhabditis elegans, UniProt Q9XUB2).
T7 sequence (Q9XUB2 whole entry): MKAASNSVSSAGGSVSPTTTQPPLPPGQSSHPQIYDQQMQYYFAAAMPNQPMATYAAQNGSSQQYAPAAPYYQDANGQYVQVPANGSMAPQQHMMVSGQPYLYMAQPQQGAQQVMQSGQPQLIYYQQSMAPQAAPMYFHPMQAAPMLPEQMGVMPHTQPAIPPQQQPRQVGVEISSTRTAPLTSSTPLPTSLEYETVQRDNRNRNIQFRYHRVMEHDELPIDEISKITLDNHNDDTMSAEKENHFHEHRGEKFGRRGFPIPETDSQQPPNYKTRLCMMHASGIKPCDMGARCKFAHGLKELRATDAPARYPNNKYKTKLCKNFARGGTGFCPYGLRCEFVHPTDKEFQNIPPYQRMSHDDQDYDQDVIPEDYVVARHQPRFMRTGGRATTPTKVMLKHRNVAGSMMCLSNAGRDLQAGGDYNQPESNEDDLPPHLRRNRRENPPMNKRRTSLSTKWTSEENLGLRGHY
The assay is described as follows: potency of MEX-5 RNA-binding blockers – biochemical, C. elegans, fluorescence polarization, dose response (AID 1960). A general note: Fluorescence polarisation rises when a labelled molecule tumbles more slowly, as on binding a larger partner.

A short description of assay [13]: blockers of HIV-1 envelope-mediated cell-cell fusion – cherry-pick, dose response (AID 652057). Type of assay: functional, cell-based.

Activity calls are given as the source filed them.
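For IC50 Mean in this document: confirmatory dose-response retesting of NadD inhibitor hits first found in an ultra-high-throughput screen.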

T1 sequence (P65502 whole entry): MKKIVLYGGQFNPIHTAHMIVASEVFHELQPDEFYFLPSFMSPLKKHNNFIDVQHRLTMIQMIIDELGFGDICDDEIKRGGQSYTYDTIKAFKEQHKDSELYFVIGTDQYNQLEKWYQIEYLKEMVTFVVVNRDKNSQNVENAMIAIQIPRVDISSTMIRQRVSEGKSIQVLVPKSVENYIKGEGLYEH

Consider `CC1=NN(c2ccc(C)c(C)c2)C(=O)C1C(c1cccc(O)c1)C1C(=O)N(c2ccc(C)c(C)c2)N=C1C` (stereo unspecified), for which the IC50 in assay [1] was 15.1 µM (active); in assay [3] it was 6.63 µM (active); in assay [5], 7.94 µM (active); in assay [6], 14.7 µM (active). The half-maximal activity concentration (AC50) in [2] is 1.14 µM (active). Also, the EC50 in assay [4] is 0.468 µM (active).
As for `O=C(c1ccc(S(=O)(=O)Nc2ccc(F)cc2)cc1)N1CCN(C(=O)c2ccco2)CC1`, the AC50 in assay [7] is 2.86 µM (active); in assay [8], 24.4 µM (active); in assay [9], 10.4 µM (active).
With `CCOc1ccccc1NC(=O)CSc1nc(O)c2c(C(F)(F)F)cc(-c3cccs3)nc2n1`, the AC50 in assay [10] is > 20 µM (inactive).
With `CCCC1Nc2ccc(C(=O)O)cc2C2C=CCC12` (stereo unspecified), the 50% effective concentration (EC50) in [11] was 23.8 µM (active); in [12] it was 14.5 µM (active). In addition, in assay [10], the AC50 is 16.8 µM (active).
In the case of `CCCN(CC(=O)Nc1ccccc1OC)C(=O)c1cccc(S(=O)(=O)NCc2ccccc2)c1`, the AC50 is 4.37 µM (active) in assay [13], 39.2 µM (active) in [7], 5.73 µM (active) in assay [8] and 10.3 µM (active) in assay [9].
In the case of `C=CCN(Cc1ccc(OC)c(OC)c1)C(=O)c1cc2cc(F)ccc2[nH]1`, the AC50 in assay [13] was 6.22 µM (active); in assay [7], 10.5 µM (active); in [8], 11.8 µM (active); in assay [9], 9.08 µM (active).

What is called AC50 is the concentration at which the activity in the assay is half-maximal. By EC50 is commonly meant the concentration giving half of the maximal effect.

Values taken from ChEMBL document CHEMBL1201862, “PubChem BioAssay data set” (2004).
